{"source": "patent US20210393549A1", "about": "“New use of R-enantiomer of adrenergic beta 2 receptor agonists for treatment of inflammatory bowel disease and its extra intestinal manifestations” (priority 2018, published 2021)", "key": {"Janus kinase 2 (JAK2)": {"test_system": "Janus kinase 2 (JAK2)", "assay": "JAK2 mRNA expression in psoriasis mice", "format": "in vivo", "conditions": "plasma of psoriasis mice, dose-response fashion", "source_text": "(§1) There was enhanced expression of mRNA of Janus kinase 2 (JAK2), a non-receptor tyrosine kinase, and the signal transducer and activator of transcription protein (Stat 2) in the plasma of psoriasis mice in comparison of control, Indicating an increase of JAK2 and Stat 2 proteins. These over expression of mRNA was inhibited by R-salbutamol in a dose-response fashion. (FIG. 3 left & right)"}, "[1]": {"test_system": "DNCB induced allergic contact dermatitis", "assay": "DNCB induced allergic contact dermatitis model (eczema)", "format": "in vivo, mice", "experimental": "Mice was shaved at abdominal area DNCB (100 μL 0.5%) is dissolved and applied to the shaved skin to induce Atopica dermatitis for 2 consecutive days. At day 8th, DNCB was applied to both inner and outer surfaces of ears to induce eczema. Treatment of R-salbutamol and indomethacin were given orally at day 1st for consecutive 8 days. The mice were scarified at day 9th for examination and evaluation. Mice were divided into four groups (n=8), namely A, Control; B. Eczema (DNCB); C. Eczema plus R-Salbutamol of 0.05, 0.1 or 0.2 mg/kg; D. Eczema plus indomethacin of 5 mg/kg. The inflammation scores were evaluated according to swelling, erythema, scratch and thickness of both ears. [table]"}, "psoriasis and eczema": {"test_system": "psoriasis and eczema", "assay": "Oral administration in rats, psoriasis and eczema", "format": "in vivo"}, "TNBS-induced colitis": {"test_system": "TNBS-induced colitis", "assay": "TNBS-induced colitis (model for Crohn's disease)", "format": "in vivo, Male mice", "source_text": "Male mice colitis was induced by rectal co-administration of ethanol and TNBS (Trinitrobenzenesulfonic acid). Severe colitis in mice that was characterized by weight loss and diarrhea. Histologically there were loss of normal structures, visible discrete epithelioid granuloma, multiple erosive lesions, massive transmural inflammation infiltration of lymphocytes, and the loss of goblet cells. […] There was significant alleviation of lesions, few inflammatory infiltration with growing crypts and recovery mucosa epithelia along the column. […] In addition, in TNBS treated colitis mice, there were perianal symptoms: erythema, abscesses and ulcers found in some mice, which may lead to perianal fissures or fistulas. […] The therapeutically effects of R-salbuterol, R-clenbuterol and R-bambuterol on the symptoms in TNBS induced Crohn's disease has never been reported in prior art."}, "[2]": {"test_system": "signal transducer and activator of transcription protein (Stat 2)", "assay": "Stat 2 mRNA expression in psoriasis mice", "format": "in vivo", "conditions": "plasma of psoriasis mice, dose-response fashion", "source_text": "as §1"}, "[3]": {"test_system": "DSS induced sub-acute colitis", "format": "in vivo", "conditions": "treatments started at day 7th till day 22nd"}, "[4]": {"conditions": "oral 8 days, R-Salbutamol 0.05, 0.1 or 0.2 mg/kg, indomethacin 5 mg/kg"}}, "note": "Entries after “also recorded” stand apart in the source; their conditions may differ.", "data": [{"smiles": "CC(C)(C)NC[C@H](O)c1ccc(O)c(CO)c1", "note": "[R-S, R-salbutamol]", "values": [{"measurement": "over expression of mRNA of JAK2", "setting": "Janus kinase 2 (JAK2)", "result": "inhibited"}, {"measurement": "ear skin histopathology", "setting": "[1]; R-Salbutamol 0.05 mg/kg", "result": "little effects on eczema"}, {"measurement": "ear skin histopathology", "setting": "[1]; R-Salbutamol 0.1 mg/kg", "result": "significant reduced monocyte infiltration"}, {"measurement": "ear skin histopathology", "setting": "[1]; R-salbutamol 0.2 mg/kg", "result": "further reductions in monocyte infiltration and epidermal keratinization"}, {"measurement": "erythema score of both ears", "setting": "[1]; [4]", "result": "significantly alleviated or prevented"}, {"measurement": "thickness score of both ears", "setting": "[1]; [4]", "result": "significantly alleviated or prevented"}, {"measurement": "eczema histology and inflammatory infiltration", "setting": "[1]; oral 8 days, dose-dependent response, indomethacin 5 mg/kg", "result": "significantly improved"}, {"measurement": "psoriasis and eczema", "setting": "psoriasis and eczema", "result": "significantly ameliorate"}, {"measurement": "perianal manifestations (erythema, abscesses, ulcers)", "setting": "TNBS-induced colitis; TNBS treated mice", "result": "significantly alleviated"}, {"measurement": "submucosa fibrosis and narrowing of intestinal lumen", "setting": "TNBS-induced colitis; TNBS treated mice", "result": "not seen; also recorded: significantly reduce the fibrosis and the narrowing of intestinal lumen"}, {"measurement": "weight loss, diarrhea, colon length versus normal control mice", "setting": "TNBS-induced colitis; oral administration", "result": "No significant different"}, {"measurement": "disease condition of TNBS colitis, in words", "setting": "TNBS-induced colitis; oral administration (R-enantiomers)", "result": "great ameliorated"}, {"measurement": "over expression of mRNA of Stat 2", "setting": "[2]", "result": "inhibited"}, {"measurement": "therapeutic effects in DSS induced IBD mice", "setting": "[3]", "result": "significant therapeutic effects"}]}]}
